Source: article PMC5522996, “Big conductance calcium‐activated potassium channel openers control spasticity without sedation” (British Journal of Pharmacology, 2017)
Read-outs that look alike come from different tables or passages of the source.

Experiments:
[1] = target: CYP450 2A6 (Homo sapiens, UniProt P11509); assay: CYP450 inhibition of substrate binding
Description: IC50 Inhibition of substrate binding
(§3) Inhibition of binding of either 3-cyano-7-ethoxycoumarin, dibenzylfluorescein or 7-benzyoxy-4-
(§4) (trifluoromethyl) coumarin in human enzyme transfected BTI NN-5B1-4 cells or Sf9 insect cells or
(§5) inhibition of dextromethorphan substrate to CYP450 2D6 in liver microsomes.

[2] = target: CYP450 2B6 (Homo sapiens, UniProt P20813)
Description: IC50 Inhibition of substrate binding
as §3, §4, §5

[3] = test system: mouse vas deferens; assay: Electrically‐evoked contraction of the mouse vas deferens; format: cell-based
Description: Vasa deferentia were obtained from outbred MF‐1 mice and mounted vertically in a 4 mL organ bath at an initial tension of 0.5 g. The baths contained Mg^2+‐free Krebs solution (NaCl 118.2 mM, KCl 4.75 mM, KH2PO4 1.19 mM, NaHCO3 25.0 mM, glucose 11.0 mM and CaCl2·6H2O 2.54 mM), which was kept at 35–36°C and bubbled with 95% O2 and 5% CO2. […] Contractions were monitored by a computer using a data recording and analysis system as described previously (Ross et al., 2001). After placement in an organ bath, each tissue was subjected to a stimulation‐free period of 10 min and then stimulated for 10 min. Tissues were then subjected to alternate periods of stimulation (5 min) and rest (10 min) until consistent twitch amplitudes were obtained. This equilibration procedure was followed by a stimulation‐free period of 25 min. Tissues were then stimulated for 5 min after which the first agonist addition was made and stimulation continued until the end of the experiment.

[4] = test system: rat mesenteric artery; parameters: method as in Hoi et al., 2007; details: ref Hoi et al., 2007; read-out: EC50, vasorelaxation of rat mesenteric arteries; cited from earlier work
[5] = test system: spastic ABH mice with EAE; assay: Spasticity: resistance to hindlimb flexion against a strain gauge; details: 5 mg·kg^−1 i.v.
[6] = Plasma, brain and spinal cord levels in ABH mice with spastic EAE; format: in vivo, mouse; details: after 5 mg·kg^−1 p.o. VSN16R, ABH mice with spastic EAE
Description: (§1) The stability of compounds when subjected to hepatic and plasma degradation was assessed in vitro by Inpharmatica, Cambridge, UK. Compounds (1 μM) were incubated with either pooled mouse liver microsomes (0.1 mg protein mL^−1) or pooled mouse plasma at 37°C for 0, 5, 10, 20 and 40 min before termination with acetonitrile containing warfarin as an analytical internal standard. Samples were centrifuged, and the resultant supernatant analysed for parent compound. The mass responses at baseline were taken as the 100% reference values against which the disappearance of the compound was measured. The natural log of the % remaining values was used to generate linear plots of disappearance of the compounds. Half‐life values were calculated from the slope of these plots. Hepatocyte metabolism was assessed by Cyprotex, Macclesfield, and 10 μM VSN16R was incubated with primary mouse, rat, monkey (Macaque) and human hepatocytes for 1 h, and the presence of metabolites was assessed using liquid […] mass spectroscopy. The stability of VSN16R was assessed in vivo by Inpharmatica, Cyprotex and Charles Rivers, Cambridge. Blood (plasma) samples were obtained prior to and 5 min to 24 h after drug administration of 2–5 mg·kg^−1 i.v. or 5 mg·kg^−1 p.o. VSN16R into outbred mice and rats (n = 3 per time point). In addition, plasma, brain and spinal cord samples were obtained from ABH with spastic EAE. Immediately after blood collection, the brain and spinal cord were removed and then stored at −20°C prior to assay. Tissue samples were weighed, homogenized and centrifuged, and the lysates generated. Brain lysates and plasma were assayed by LC–MS methods by Inpharmatica/Charles Rivers, Cambridge, UK. This was also performed using a Waters Xevo TQ or API4000, AB Sciex mass spectrometer using spiked samples as standards. PK Solutions Software (Summit Research Services, Montrose, CO, USA), AB Sciex Analyst software combined with Thermo Fisher Scientific Watson LIMS processing and reporting software or WinNonLin pharmacokinetic or PK solutions 2.0 software (Summit Research Services, Montrose CO, USA) were used to produce PK parameters. Data are expressed as mean ± SEM. The detection limit of VSN16R was 2 ng·mL^−1 in plasma and brain and 14 ng·mL^−1 in spinal cords. The detection limit of VSN22R was 2 ng·mL^−1 in plasma and 0.1 ng·mL^−1 for VSN44R in plasma. Pharmacokinetics in toxicological samples in rats (n = 6 per group), dogs (n = 6 per group) and humans (n = 6 per group) were performed by Charles Rivers (Edinburgh, UK).

[7] = target: T1, BKCa channel (Homo sapiens, UniProt Q12791+Q86W47); assay: Single‐channel inside‐out patch clamp, EA.hy926 cells; format: cell-based; details: 3 μM, inner surface of membrane, 40 mV, 0.3 μM free Ca^2+
T1 construct: host or cells: EA.hy926 endothelial cells
T1 sequence (Q12791 whole entry): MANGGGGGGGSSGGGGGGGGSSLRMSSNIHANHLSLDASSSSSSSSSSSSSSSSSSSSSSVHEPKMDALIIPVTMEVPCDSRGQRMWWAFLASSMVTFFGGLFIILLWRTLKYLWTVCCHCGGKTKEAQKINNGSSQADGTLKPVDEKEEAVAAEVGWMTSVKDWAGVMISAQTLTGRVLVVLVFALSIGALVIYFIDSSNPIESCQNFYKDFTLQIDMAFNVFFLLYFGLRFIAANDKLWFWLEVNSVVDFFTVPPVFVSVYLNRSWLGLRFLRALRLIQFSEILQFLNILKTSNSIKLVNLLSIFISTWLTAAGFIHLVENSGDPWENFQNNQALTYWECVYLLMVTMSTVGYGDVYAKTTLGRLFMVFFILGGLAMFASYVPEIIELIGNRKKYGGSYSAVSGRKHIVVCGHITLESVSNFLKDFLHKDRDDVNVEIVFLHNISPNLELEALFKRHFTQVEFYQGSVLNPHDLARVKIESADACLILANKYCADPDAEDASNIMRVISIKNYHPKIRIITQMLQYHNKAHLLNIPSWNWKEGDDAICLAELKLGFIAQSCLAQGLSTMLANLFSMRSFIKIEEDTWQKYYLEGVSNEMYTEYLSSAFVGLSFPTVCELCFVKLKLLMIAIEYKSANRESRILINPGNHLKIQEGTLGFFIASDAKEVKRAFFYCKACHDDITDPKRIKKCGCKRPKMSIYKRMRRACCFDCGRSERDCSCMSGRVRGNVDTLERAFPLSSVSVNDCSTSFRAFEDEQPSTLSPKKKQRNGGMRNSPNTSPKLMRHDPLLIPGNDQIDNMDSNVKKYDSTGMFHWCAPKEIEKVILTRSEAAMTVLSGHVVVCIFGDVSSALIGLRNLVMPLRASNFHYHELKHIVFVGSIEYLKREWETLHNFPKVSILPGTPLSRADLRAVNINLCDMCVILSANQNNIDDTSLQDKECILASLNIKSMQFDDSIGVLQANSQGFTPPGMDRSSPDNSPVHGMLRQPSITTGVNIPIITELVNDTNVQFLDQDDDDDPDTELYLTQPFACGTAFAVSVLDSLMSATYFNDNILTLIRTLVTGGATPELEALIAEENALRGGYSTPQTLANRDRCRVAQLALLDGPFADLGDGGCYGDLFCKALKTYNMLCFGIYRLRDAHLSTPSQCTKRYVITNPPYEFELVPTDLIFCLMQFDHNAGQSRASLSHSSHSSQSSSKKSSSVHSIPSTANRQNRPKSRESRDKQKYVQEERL
T1 sequence (Q86W47 whole entry): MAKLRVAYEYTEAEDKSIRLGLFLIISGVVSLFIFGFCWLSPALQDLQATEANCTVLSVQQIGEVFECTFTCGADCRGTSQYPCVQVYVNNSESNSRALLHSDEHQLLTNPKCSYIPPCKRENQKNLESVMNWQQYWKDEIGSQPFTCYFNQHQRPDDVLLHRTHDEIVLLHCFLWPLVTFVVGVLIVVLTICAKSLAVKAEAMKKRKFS
Description: The human EA.hy926 endothelial cells (ATCC, Manassas, USA) were grown in DMEM containing 10% FCS and 1% HAT (5 mM hypoxanthine, 20 μM aminopterin and 0.8 mM thymidine) and were maintained in an incubator at 37°C in 5% CO2 atmosphere (Bondarenko et al., 2013). Human HNC‐2 neuronal cells were obtained from ATCC. For experiments, cells were plated on glass coverslips. Single‐channel recordings were obtained from excised inside‐out membrane patches in symmetrical solutions using the patch‐clamp technique. All patch‐clamp experiments were performed at room temperature with the use of a water hydraulic micromanipulator (WR‐6, Narishige, Japan). […] The pipettes were filled with 140 mM KCl, 10 mM HEPES, 1 mM MgCl2, 5 mM EGTA and […] CaCl2 buffered to pH 7.2 by adding KOH. Cells were super‐perfused with a bath solution containing 140 mM NaCl, 5 mM KCl, 1.2 mM MgCl2, 10 mM HEPES, 10 mM glucose and 2.4 mM CaCl2. Following gigaseal formation, bath solution was switched to the following: 140 mM KCl, 10 mM HEPES, 1 mM MgCl2, 5 mM EGTA and a designated free Ca^2+ concentration, which was adjusted by adding different amounts of CaCl2 buffered to pH 7.2. (Bondarenko et al., 2011; Bondarenko et al., 2013). Single‐channel activity was expressed as NPo, where N represents the number of functional ion channels in the membrane patch and Po represents the open channel probability determined from idealized traces (Bondarenko et al., 2011). NPo was obtained from ≥20 s of continuous recording under each experimental condition. The effect of VSN16R was estimated after 3 min of continuous exposure to VSN16R‐containing solution. Data were analysed by ANOVA, and statistical significance was evaluated using Scheffés post hoc test of the Prism 5 software for Windows (GraphPad Software).

[8] = Phase I pharmacokinetics in healthy humans; format: in vivo, human; details: male, human, plasma, oral; twice daily dosing of VSN16R; read-out: Steady‐state plasma levels
Description: as §1, with “cords.” for “cords. The detection limit of VSN22R was 2 ng·mL^−1 in plasma and 0.1 ng·mL^−1 for VSN44R in plasma. Pharmacokinetics in toxicological samples in rats (n = 6 per group), dogs (n = 6 per group) and humans (n = 6 per group) were performed by Charles Rivers (Edinburgh, UK).”

[9] = Stability in pooled mouse plasma; format: in vitro ADME; details: 37°C, upper limit 100 min, read-out: t ½ in plasma
Description: (§2) The stability of compounds when subjected to hepatic and plasma degradation was assessed in vitro by Inpharmatica, Cambridge, UK. Compounds (1 μM) were incubated with either pooled mouse liver microsomes (0.1 mg protein mL^−1) or pooled mouse plasma at 37°C for 0, 5, 10, 20 and 40 min before termination with acetonitrile containing warfarin as an analytical internal standard. Samples were centrifuged, and the resultant supernatant analysed for parent compound. The mass responses at baseline were taken as the 100% reference values against which the disappearance of the compound was measured. The natural log of the % remaining values was used to generate linear plots of disappearance of the compounds. Half‐life values were calculated from the slope of these plots. Hepatocyte metabolism was assessed by Cyprotex, Macclesfield, and 10 μM VSN16R was incubated with primary mouse, rat, monkey (Macaque) and human hepatocytes for 1 h, and the presence of metabolites was assessed using liquid […] mass spectroscopy. The stability of VSN16R was assessed in vivo by Inpharmatica, Cyprotex and Charles Rivers, Cambridge. Blood (plasma) samples were obtained prior to and 5 min to 24 h after drug administration of 2–5 mg·kg^−1 i.v. or 5 mg·kg^−1 p.o. VSN16R into outbred mice and rats (n = 3 per time point). […] Data are expressed as mean ± SEM. […]

[10] = test system: rat mesenteric artery; assay: Methoxamine‐evoked contraction of rat mesenteric artery; format: cell-based; details: 200 µM
Description: Vessels were equilibrated and set to a basal tension of 2 to 2.5 mN. The integrity of the endothelium was assessed by pre‐contracting the vessel with 10 μM methoxamine (an α1‐adrenoceptor agonist), followed by relaxation with 10 μM carbachol (a muscarinic acetylcholine receptor agonist); vessels showing relaxations of greater than 90% were designated as endothelium‐intact. When the endothelium was not required, it was removed by rubbing the intima with a human hair; carbachol‐induced relaxation of less than 10% indicated successful removal. After the test for endothelial integrity, vessels were left for 30 min and then pre‐contracted with 10 μM methoxamine. This was followed by construction of a cumulative concentration–relaxation curve to VSN16R (10 nM–1 μM). […] Most experiments were performed in matched vessels; effects of blockers or endothelial removal were compared with the control responses obtained in separate vessels of the same rats. All relaxant responses are expressed as percentage relaxation of the tone induced by methoxamine. Values are given as mean ± SEM. Statistical comparisons of concentration‐dependent responses were made by two‐way ANOVA using Prism 4 (GraphPad Software, Inc, San Diego, CA, USA).

[11] = test system: BKCa channels; parameters: method as in Denson DD et al. Brain Res 638:61; details: ref Denson DD et al. Brain Res 638:61; read-out: EC50, inhibition of inside-out current of BKCa channels; cited from earlier work
[12] = Stability in pooled mouse liver microsomes; format: in vitro ADME; details: microsomes, 37°C, upper limit 100 min, read-out: t ½ in liver microsomes
Description: as §2

[13] = Mus musculus, read-out: EC50, inhibition of electrically‐evoked contraction

Sequence of CYP450 2A6 (P11509 whole entry): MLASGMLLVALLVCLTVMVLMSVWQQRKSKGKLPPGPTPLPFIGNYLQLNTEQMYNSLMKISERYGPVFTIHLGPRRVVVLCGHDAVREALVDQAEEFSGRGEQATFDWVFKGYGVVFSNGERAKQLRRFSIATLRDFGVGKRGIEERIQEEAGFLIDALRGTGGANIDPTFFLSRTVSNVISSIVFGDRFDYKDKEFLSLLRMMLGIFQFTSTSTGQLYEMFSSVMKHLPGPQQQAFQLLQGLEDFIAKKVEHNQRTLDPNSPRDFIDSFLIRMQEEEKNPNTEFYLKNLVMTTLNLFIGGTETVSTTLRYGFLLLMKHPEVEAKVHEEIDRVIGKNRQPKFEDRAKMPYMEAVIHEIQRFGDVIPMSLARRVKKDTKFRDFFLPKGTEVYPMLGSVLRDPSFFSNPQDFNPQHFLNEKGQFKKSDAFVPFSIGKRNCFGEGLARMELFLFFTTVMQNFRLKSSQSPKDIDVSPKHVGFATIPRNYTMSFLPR
Sequence of CYP450 2B6 (P20813 whole entry): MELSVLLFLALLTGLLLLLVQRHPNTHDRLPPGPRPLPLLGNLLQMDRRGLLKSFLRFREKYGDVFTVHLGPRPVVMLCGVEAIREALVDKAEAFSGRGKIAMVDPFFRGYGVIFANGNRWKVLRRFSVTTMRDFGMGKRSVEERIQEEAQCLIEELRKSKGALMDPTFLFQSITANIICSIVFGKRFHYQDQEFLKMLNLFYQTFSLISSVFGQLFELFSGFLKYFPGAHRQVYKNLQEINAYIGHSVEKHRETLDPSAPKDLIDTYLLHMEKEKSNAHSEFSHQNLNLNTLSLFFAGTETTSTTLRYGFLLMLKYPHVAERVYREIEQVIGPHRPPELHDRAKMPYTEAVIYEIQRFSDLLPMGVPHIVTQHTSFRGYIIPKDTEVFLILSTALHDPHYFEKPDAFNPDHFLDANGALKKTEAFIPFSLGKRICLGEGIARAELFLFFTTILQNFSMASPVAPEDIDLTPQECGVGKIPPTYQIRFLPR

Question: For `N[C@@H]1C[C@H]1c1ccccc1` (racemic) [Tranylcypromine, reference compound], which EC50 [1] is on record?
Answer: The EC50 was 200 nM.

Question: With `CC(=O)N1CCN(c2ccc(OCC3COC(Cn4ccnc4)(c4ccc(Cl)cc4Cl)O3)cc2)CC1` (centres unmarked) [Ketoconazole, reference compound] as the compound, how does the EC50 [2] read?
Answer: Its EC50 is 2900 nM.

Question: For `C[C@@H](CO)NC(=O)c1cccc(/C=C\CCCC(=O)N(C)C)c1` [VSN16S], which EC50 [3, 13] is on record?
Answer: Its EC50 is 37 nM.

Question: What about the EC50 [4] of the same compound?
Answer: The EC50 was 140 nM.

Question: With `CNC(=O)CCC/C=C\c1cccc(C(=O)N[C@H](C)CO)c1` [VSN22R, (R,Z)‐N‐(1‐hydroxypropan‐2‐yl)‐3‐(6‐(methylamino)‐6‐oxohex‐1‐en‐1‐yl)benzamide] as the compound, how does the EC50 [3, 13] read?
Answer: Its EC50 is 9 nM.

Question: What about the Inhibition of spasticity [5] of the same compound?
Answer: Its Inhibition of spasticity is “could inhibit the spasticity”.

Question: What about the “Plasma level of the named species” value [6] of the same compound?
Answer: Its value is 106 ± 6.1 ng/mL.

Question: And the “Single BKCa channel activity” value [7]?
Answer: The value was “facilitated single BKCa channel activity”.

Question: And the concentration at 1 week [8]?
Answer: Its concentration at 1 week is over 100 nM.

Question: With `C[C@@H](NC(=O)c1cccc(/C=C\CCCC(=O)N(C)C)c1)C(=O)O` [VSN44R, (Z)‐(3‐(6‐(dimethylamino)‐6‐oxohex‐1‐en‐1‐yl)benzoyl)‐D‐alanine] as the compound, how does the EC50 ([3]; Mus musculus; read-out: EC50, inhibition of electrically‐evoked contraction) read?
Answer: The EC50 was 1 nM.

Question: What about the Inhibition of spasticity [5] of the same compound?
Answer: The Inhibition of spasticity was “could inhibit the spasticity”.

Question: And the “Plasma level of the named species” value [6]?
Answer: The value was 2.1 ± 0.3 ng/mL.

Question: What about the “Single BKCa channel activity” value [7] of the same compound?
Answer: Its value is “facilitated single BKCa channel activity”.

Question: For `CC(=O)Oc1ccc(C(c2ccc(OC(C)=O)cc2)c2ccccn2)cc1` [bisacodyl, reference compound], which half-life at 1 μM [9] is on record?
Answer: Its half-life at 1 μM is 2 min.

Question: With `CNC1(c2ccccc2Cl)CCCCC1=O` (centres unmarked) [ketamine] as the compound, how does the “Effect on VSN16R relaxation of methoxamine-evoked contraction” value [10] read?
Answer: Its value is “can inhibit the mechanism of action of VSN16R”.

Question: And the EC50 [11]?
Answer: The EC50 was about 25000 nM.

Question: For `Cc1ncc2n1-c1ccc(Cl)cc1C(c1ccccc1F)=NC2` [midazolam, reference compound], which half-life at 1 μM [12] is on record?
Answer: The half-life at 1 μM was 17 min.
